Test results taken from US20030092004A1 (priority 2001, published 2003).
“Also recorded” adds a separate entry of the source. Where two headings read alike, the source gives them in different places.

Columns and labels:
NR1/NR3B receptors = NR1/NR3B receptors (Rattus norvegicus, UniProt P35439+Q8VHN2); experiment: Two-electrode voltage-clamp recording of whole-cell currents in Xenopus oocytes injected with NR1 and NR3B cRNA; format: cell-based; conditions: for effect on glycine-evoked NR1/NR3B currents on co-application: doses maximally effective at classical NMDARs
Sequence of NR1/NR3B receptors (Q8VHN2 25-1002, other chains not shown): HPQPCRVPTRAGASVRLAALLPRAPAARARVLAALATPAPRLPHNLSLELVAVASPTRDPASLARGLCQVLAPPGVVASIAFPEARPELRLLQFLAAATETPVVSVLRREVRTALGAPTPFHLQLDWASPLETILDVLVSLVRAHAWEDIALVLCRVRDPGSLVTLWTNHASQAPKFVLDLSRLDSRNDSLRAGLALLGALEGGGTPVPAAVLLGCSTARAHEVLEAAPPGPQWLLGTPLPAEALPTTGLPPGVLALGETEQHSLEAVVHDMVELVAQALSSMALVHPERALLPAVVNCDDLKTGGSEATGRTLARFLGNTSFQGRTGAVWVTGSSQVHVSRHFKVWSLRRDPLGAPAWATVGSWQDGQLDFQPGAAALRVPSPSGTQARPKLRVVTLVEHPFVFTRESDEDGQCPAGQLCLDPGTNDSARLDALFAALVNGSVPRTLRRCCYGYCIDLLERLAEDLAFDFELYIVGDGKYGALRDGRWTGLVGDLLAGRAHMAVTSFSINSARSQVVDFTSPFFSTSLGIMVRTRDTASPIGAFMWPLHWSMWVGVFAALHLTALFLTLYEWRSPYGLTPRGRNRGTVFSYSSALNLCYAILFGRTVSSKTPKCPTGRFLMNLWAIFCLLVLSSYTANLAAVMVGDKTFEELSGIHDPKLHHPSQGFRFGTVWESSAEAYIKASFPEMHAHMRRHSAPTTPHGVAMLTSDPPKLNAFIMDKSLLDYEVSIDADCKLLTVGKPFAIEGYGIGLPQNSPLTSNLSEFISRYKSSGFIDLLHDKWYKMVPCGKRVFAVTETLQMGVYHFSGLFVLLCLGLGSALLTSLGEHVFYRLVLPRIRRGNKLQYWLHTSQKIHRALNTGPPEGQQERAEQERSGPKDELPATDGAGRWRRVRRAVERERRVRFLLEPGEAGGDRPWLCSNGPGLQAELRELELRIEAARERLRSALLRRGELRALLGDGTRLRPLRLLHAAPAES
Description: Currents were recorded in 1.5 mM Ba^2+ Ringers' solution from oocytes injected with 2 ng of NR1 cRNA and 12 ng of NR3B cRNA.
NR3B cRNA for oocyte expression was produced as follows. The full-length NR3B cDNA was constructed in the pCMV6-XL4 vector (OriGene Technologies, Inc., Rockville, Md.), which contains a T7 promoter upstream of the cDNA insert. […] The truncated cRNA could potentially encode a dominant negative form of NR3B. Therefore, a new vector was constructed to facilitate production of exclusively full-length NR3B cRNA. Construction of this vector proceeded as follows. NR1 cDNA was excised from the pGEM-HE/NR1 vector (a gift from S. F. Heinemann) by digestion with EcoRI and the two ends of the truncated pGEM-HE vector were re-ligated. The truncated pGEM-HE vector retained the 5′ and 3′ UTRs of the X. laevis β-globin gene for high level protein expression in frog oocytes. The SfoI-KpnI fragment of truncated pGEM-HE, which contains the T7 promoter, was replaced with the PvuII-KpnI fragment of pBluescript II KS, which contains the T3 promoter, to generate pJC32. The abbreviated multiple cloning site of pJC32 was then replaced with the multiple cloning site from pcDNA3.1(+) (Invitrogen, Carlsbad, Calif.) by ligating the 102 bp PmeI fragment of pcDNA3.1(+) into the 3 kb SmaI-EcoRV fragment of pJC32 to generate pJC34. Oligos encoding restriction sites for AscI, PacI, and PmeI (ctagc[…]g (SEQ ID NO:52) and ctagc[…]g (SEQ ID NO:53)) were annealed and ligated into the NheI site of pJC34. The resulting vector, pJC39, contains three rare restriction sites downstream of the multiple cloning site to facilitate linearization prior to in vitro transcription using T3 RNA polymerase.
The full-length NR3B (B4 form) cDNA was then excised from pCMV6-XL4 by digestion with EcoRI and XbaI, and the 3.2 kb fragment was ligated into EcoRI/XbaI-digested pJC39. The resulting vector, pJC42, was linearized with PmeI, and in vitro transcription was performed using the mMessage mMachine T3 kit (Ambion, Inc., Austin, Tex.) according to the manufacturer's instructions.
Micropipettes were filled with 3M KCl.

NR1/NR3A receptors = NR1/NR3A receptors (Rattus norvegicus, UniProt P35439+Q9R1M7); experiment: Two-electrode voltage recording of glycine-evoked currents in oocytes injected with NR1 and NR3A subunits
Sequence of NR1/NR3A receptors (Q9R1M7 24-1135, other chains not shown): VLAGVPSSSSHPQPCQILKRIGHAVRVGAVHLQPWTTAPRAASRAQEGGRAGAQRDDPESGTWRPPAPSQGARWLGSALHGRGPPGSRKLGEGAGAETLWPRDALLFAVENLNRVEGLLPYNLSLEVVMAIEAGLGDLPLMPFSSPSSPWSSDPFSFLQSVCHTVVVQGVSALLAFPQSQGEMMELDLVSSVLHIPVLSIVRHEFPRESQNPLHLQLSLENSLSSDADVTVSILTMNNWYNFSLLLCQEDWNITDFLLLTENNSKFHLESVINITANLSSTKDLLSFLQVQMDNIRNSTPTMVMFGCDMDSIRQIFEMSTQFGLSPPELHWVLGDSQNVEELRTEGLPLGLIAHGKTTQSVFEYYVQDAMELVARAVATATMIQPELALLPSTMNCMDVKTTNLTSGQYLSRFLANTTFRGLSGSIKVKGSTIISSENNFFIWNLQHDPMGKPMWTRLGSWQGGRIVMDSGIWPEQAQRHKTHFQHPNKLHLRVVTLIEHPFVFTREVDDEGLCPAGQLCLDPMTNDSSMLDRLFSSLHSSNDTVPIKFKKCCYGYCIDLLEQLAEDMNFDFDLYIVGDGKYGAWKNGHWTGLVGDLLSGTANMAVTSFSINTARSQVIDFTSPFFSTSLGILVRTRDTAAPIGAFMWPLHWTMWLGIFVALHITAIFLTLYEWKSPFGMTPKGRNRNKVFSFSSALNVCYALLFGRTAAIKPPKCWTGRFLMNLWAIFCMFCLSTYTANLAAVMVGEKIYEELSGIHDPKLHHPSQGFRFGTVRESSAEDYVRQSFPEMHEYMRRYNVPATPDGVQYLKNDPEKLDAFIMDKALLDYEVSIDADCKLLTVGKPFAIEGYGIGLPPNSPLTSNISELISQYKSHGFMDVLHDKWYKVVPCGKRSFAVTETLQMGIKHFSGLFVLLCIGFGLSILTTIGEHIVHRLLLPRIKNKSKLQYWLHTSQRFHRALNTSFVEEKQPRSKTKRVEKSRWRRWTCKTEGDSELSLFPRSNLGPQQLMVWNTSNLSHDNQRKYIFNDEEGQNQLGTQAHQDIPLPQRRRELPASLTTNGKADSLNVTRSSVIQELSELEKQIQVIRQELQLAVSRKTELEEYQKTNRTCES
Description: Microinjection of oocytes and electrophysiological recordings were performed as follows. Physiological and pharmacological properties of NMDA receptor subunits were characterized in the X. laevis oocyte expression system. […] X. laevis oocytes were harvested and defolliculated by digestion with collagenase (2 mg/ml) for 2 hrs. Twenty to 40 ng of cRNA were injected into each oocyte using glass pipettes with a tip size of 20-40 μm in diameter. Electrophysiological recordings were performed from whole oocytes 2-7 days after injection using a dual-electrode voltage-clamp amplifier (Model OC-725A, Warner Instrument, Hamden, Conn.). Micropipettes were filled with 3M KCl. The bath solution contained 115 mM NaCl, 2.5 mM KCl, 1.5 mM BaCl2, and 10 mM Hepes at pH 7.4. Drugs were applied to oocytes via a rapid perfusion system. Data were collected at 2.2 to 11.1 Hz at room temperature using the MacLab/4e A/D converter (AD Instruments, Mountain View, Calif.). Data analysis was performed using the programs Chart (AD Instruments, Mountain View, Calif.) and Microsoft Excel.

NR1/NR2A receptors = NR1/NR2A receptors (Rattus norvegicus, UniProt P35439+Q00959); experiment: Two-electrode voltage-clamp recording of NMDA plus glycine-evoked currents in Xenopus oocytes expressing NR1/NR2A; format: cell-based; conditions: for effect on NR1/NR2A currents: 100 μM NMDA plus 10 μM glycine
Sequence of NR1/NR2A receptors (Q00959 20-1464 limits assumed, other chains not shown): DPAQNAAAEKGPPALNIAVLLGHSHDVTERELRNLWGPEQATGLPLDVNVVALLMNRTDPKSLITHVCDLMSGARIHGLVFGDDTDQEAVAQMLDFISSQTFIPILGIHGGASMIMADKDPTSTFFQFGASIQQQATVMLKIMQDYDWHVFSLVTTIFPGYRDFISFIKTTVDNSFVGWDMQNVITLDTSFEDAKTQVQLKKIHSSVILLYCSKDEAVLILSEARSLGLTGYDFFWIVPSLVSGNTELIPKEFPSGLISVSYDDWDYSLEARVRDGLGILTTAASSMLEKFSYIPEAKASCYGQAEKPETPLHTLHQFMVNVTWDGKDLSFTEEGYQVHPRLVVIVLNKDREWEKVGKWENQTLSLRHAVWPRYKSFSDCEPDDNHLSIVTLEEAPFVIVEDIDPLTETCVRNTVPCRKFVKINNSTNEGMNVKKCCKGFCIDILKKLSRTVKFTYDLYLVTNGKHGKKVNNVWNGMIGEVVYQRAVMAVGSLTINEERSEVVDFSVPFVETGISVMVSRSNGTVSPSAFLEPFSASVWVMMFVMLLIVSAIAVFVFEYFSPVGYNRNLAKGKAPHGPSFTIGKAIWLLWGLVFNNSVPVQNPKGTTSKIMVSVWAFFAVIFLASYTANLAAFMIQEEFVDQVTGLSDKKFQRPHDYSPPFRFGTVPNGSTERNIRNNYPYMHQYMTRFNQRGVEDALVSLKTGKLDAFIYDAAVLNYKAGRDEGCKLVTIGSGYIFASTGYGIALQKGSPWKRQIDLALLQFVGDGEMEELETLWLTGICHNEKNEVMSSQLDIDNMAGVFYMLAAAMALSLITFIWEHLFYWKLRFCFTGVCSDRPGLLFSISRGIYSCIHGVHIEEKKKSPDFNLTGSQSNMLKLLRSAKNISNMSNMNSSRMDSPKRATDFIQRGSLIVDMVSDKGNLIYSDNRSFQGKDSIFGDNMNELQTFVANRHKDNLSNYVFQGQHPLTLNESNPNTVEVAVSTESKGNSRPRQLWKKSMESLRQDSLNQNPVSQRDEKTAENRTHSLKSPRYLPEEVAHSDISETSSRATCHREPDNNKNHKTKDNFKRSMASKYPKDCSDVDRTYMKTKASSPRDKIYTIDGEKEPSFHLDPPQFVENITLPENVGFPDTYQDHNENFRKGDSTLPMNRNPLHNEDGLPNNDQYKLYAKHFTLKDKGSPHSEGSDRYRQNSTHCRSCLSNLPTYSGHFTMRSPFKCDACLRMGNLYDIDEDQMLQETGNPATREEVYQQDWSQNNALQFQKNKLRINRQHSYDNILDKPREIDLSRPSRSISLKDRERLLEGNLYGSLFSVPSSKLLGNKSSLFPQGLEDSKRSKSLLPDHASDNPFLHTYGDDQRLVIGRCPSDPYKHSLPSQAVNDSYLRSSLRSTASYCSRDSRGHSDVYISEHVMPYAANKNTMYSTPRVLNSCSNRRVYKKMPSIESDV
Description: Microinjection of oocytes and electrophysiological recordings were performed as follows. Physiological and pharmacological properties of NMDA receptor subunits were characterized in the X. laevis oocyte expression system. Full-length cDNAs encoding NMDA receptor subunits were linearized and used as templates for synthesis of cRNA by in vitro transcription using T3 or T7 RNA polymerase (Ambion, Inc., Austin, Tex.). The DNA template was removed by DNase I digestion, and the RNA was purified by phenol/chloroform extraction and ethanol precipitation. The RNA was resuspended in water at 1 μg/μl and stored in −80° C. freezer until use. X. laevis oocytes were harvested and defolliculated by digestion with collagenase (2 mg/ml) for 2 hrs. Twenty to 40 ng of cRNA were injected into each oocyte using glass pipettes with a tip size of 20-40 μm in diameter. […] Micropipettes were filled with 3M KCl. […] Drugs were applied to oocytes via a rapid perfusion system. Data were collected at 2.2 to 11.1 Hz at room temperature using the MacLab/4e A/D converter (AD Instruments, Mountain View, Calif.). Data analysis was performed using the programs Chart (AD Instruments, Mountain View, Calif.) and Microsoft Excel.

[1] = concentration of compound not given or dose-dependent
[2] = no glutamate/NMDA, 1.5 mM Ba2+ Ringers' solution

N[C@H](CO)C(=O)O [D-serine]
effect on glycine-evoked NR1/NR3B currents on co-application (NR1/NR3B receptors; 10 μM glycine): produces relative inhibition | effect on glycine-evoked NR1/NR3B currents (NR1/NR3B receptors; [1]): dose-dependently inhibits currents; also recorded: inhibited; also recorded: inhibits glycine-evoked responses in a dose-dependent fashion | NR1/NR3B current evoked by compound applied alone (NR1/NR3B receptors; [2]): evokes small NR1/NR3B currents alone | effect on glycine-evoked NR1/NR3A currents (NR1/NR3A receptors): effectively blocked

NC(CCCP(=O)(O)O)C(=O)O (stereo not shown) [APV, 2-amino-5-phosphonovalerate]
effect on glycine-evoked NR1/NR3B currents (NR1/NR3B receptors): little or no effect; also recorded: has little effect | effect on glycine-induced NR1/NR3B current (NR1/NR3B receptors): actually potentiated glycine-evoked current somewhat; also recorded: did not block the glycine-induced current, and actually potentiated the current | effect on NR1/NR2A currents (NR1/NR2A receptors; compound 10 μM): blocks | effect on glycine-evoked NR1/NR3A currents (NR1/NR3A receptors): blocked the current only slightly

N[C@@H](CCC(=O)O)C(=O)O [glutamate]
effect on NR1/NR3B currents evoked by glycine (NR1/NR3B receptors): have little effect or only slightly potentiate the current

[Mg+2] [Mg^2+]
sensitivity of NR1/NR3B receptors to channel blocker compared to NR1/NR2A (NR2-containing) receptors (NR1/NR3B receptors; comparison with NR2 subunit-containing receptors): drastically less sensitive; also recorded: much less potently | effect on glycine-induced NR1/NR3B current (NR1/NR3B receptors; compound 0.5 mM, 10 μM glycine, holding potential −60 mV): had no effect | effect on glycine-evoked NR1/NR3B currents (NR1/NR3B receptors; [1]): weakly inhibits | effect on NR1/NR2A currents (NR1/NR2A receptors; compound 0.1 mM): inhibition | effect on glycine-evoked NR1/NR3A currents (NR1/NR3A receptors): no inhibitory effect | effect on glycine-evoked NR1/NR3A currents (NR1/NR3A receptors; higher glycine levels): potentiates peak currents without affecting the steady state current | effect on glycine-evoked NR1/NR3A currents (NR1/NR3A receptors; low glycine levels): not only failed to block glycine-evoked currents of NR1/NR3A receptors, but actually potentiated these currents; also recorded: actually potentiates

N[C@@H](CS)C(=O)O [L-cysteine]
effect on NR1/NR3B currents evoked by glycine (NR1/NR3B receptors; compound 50 μM, 5 μM glycine): have little effect or only slightly potentiate the current | effect on glycine-evoked NR1/NR3B currents (NR1/NR3B receptors; [1]): slightly potentiated

CC12CC3CC(C)(C1)CC(N)(C3)C2 [Memantine]
effect on NR1/NR2A currents (NR1/NR2A receptors; compound 12 μM): completely blocks

C[C@]12N[C@H](Cc3ccccc31)c1ccccc12 [MK801]
effect on glycine-evoked NR1/NR3B currents (NR1/NR3B receptors): does not block and in fact appears to slightly potentiate | sensitivity of NR1/NR3B receptors to channel blocker compared to NR1/NR2A (NR2-containing) receptors (NR1/NR3B receptors): drastically less sensitive | effect on NR1/NR2A currents (NR1/NR2A receptors; compound 10 μM): complete blockade | effect on glycine-evoked NR1/NR3A currents (NR1/NR3A receptors): not only failed to block glycine-evoked currents of NR1/NR3A receptors, but actually potentiated these currents; also recorded: potentiates

NC1(C(=O)O)CC1 [ACPC]
effect on glycine-evoked NR1/NR3B currents on co-application (NR1/NR3B receptors; 10 μM glycine): produces relative inhibition | effect on glycine-evoked NR1/NR3B currents (NR1/NR3B receptors; [1]): inhibited | NR1/NR3B current evoked by compound applied alone (NR1/NR3B receptors; [2]): does not evoke detectable NR1/NR3B currents | NR1/NR2A currents on co-application with NMDA (co-agonist activity) (NR1/NR2A receptors; co-applied with 100 μM NMDA): evokes NR1/NR2A currents

O=C(O)c1cc(=O)c2c(Cl)cc(Cl)cc2[nH]1 [5,7-dichlorokynurenic acid]
effect on glycine-evoked NR1/NR3B currents (NR1/NR3B receptors; [1]): completely inhibits | effect on glycine-evoked NR1/NR3B currents (NR1/NR3B receptors; concentration of compound not given or dose-dependent, listed as 5, 7-di-Cl-Kynurenate): blocks | effect on glycine-evoked NR1/NR3B currents (NR1/NR3B receptors; concentration of compound not given or dose-dependent, listed as 5,7-dichlorokynurenate): completely abolished | effect on glycine-evoked NR1/NR3A currents (NR1/NR3A receptors; listed as 5, 7-di-Cl-Kynurenate): effectively blocked | effect on glycine-evoked NR1/NR3A currents (NR1/NR3A receptors; listed as 5,7-dichlorokynurenate): blocked

CN[C@H](CC(=O)O)C(=O)O [NMDA, N-methyl-D-aspartate]
NR1/NR3B current evoked by compound applied alone (NR1/NR3B receptors): little or no effect | effect on glycine-evoked NR1/NR3B currents (NR1/NR3B receptors): little or no effect; also recorded: does not potentiate
